Values joined by “and” are separate entries in the source; they are usually repeats but may differ in a detail not shown here. Equal entries are not always repeated. Values belong to the compound of their own block, whether it stands above or below them.
Legend:
[1] = Salt solubility measurement in water; settings: for solubility / Solubility as free base / Solubility as salt: water, stirred at ambient temperature 18-20 hours, filtered, hplc assay; for solubility: thermodynamic from solid; for pH of the remaining solution: remaining solution after solubility measurement in water
[2] = system: gastric tumor (N87) cell line; test: Methylene blue growth inhibition assay, N87; type: cell-based; settings: Homo sapiens, 72 h, N87 cells, 3 days
Method: (§1) Human breast (BT474), head and neck (HN5) and gastric tumor (N87) cell lines and human foreskin Fibroblasts (HFF) were cultured in low glucose DMEM (Life Technologies 12320-032) containing 10% fetal bovine serum (FBS) at 37° C. in a humidified 10% CO2, 90% air incubator. The SV40 transformed human mammary epithelial cell line HB4a was transfected with either human H-ras cDNA (HB4a r4.2) or the human c-erbB2 cDNA (HB4a c5.2). The HB4a clones were cultured in RPMI containing 10% FBS, insulin ([…]), hydrocortisone ([…]), supplemented with the selection agent hygromycin B (50 μg/ml). Cells were harvested using trypsin/EDTA, counted using a haemocytometer, and plated in […] of the appropriate media, at the following densities, in a 96-well tissue culture plate (Falcon 3075): BT474 10,000 cells/well, HN5 3,000 cells/well, N87 10,000 cells/well, HB4a c5.2 3,000 cells/well, HB4a r4.2 3,000 cells/well, HFF 2500 cells/well. The next day, compounds were diluted in DMEM containing […] gentamicin, at twice the final required concentration, from 10 mM stock solutions in DMSO. […] of these dilutions were added to the […] of media currently on the cell plates. Medium containing 0.6% DMSO was added to control wells. […] Optical density at 620 nm was measured on a microplate reader. Percent inhibition of cell growth was calculated relative to vehicle treated control wells. […]

breast (BT474) cell line = test: Methylene blue growth inhibition assay, BT474; type: cell-based; settings: Homo sapiens, BT-474, 72 h, BT474 cells, 3 days
Method: as §1

[3] = system: head and neck (HN5) cell line; test: Methylene blue growth inhibition assay, HN5; type: cell-based; settings: Homo sapiens, 72 h, HN5 cells, 3 days
Method: as §1

Compound: CS(=O)(=O)CCNCc1ccc(-c2ccc3ncnc(Nc4ccc(OCc5cccc(F)c5)c(Cl)c4)c3c2)o1.C[C@H](O)C(=O)O.C[C@H](O)C(=O)O [Di-L-lactate, N-{3-Chloro-4-[(3-fluorobenzyl)oxy]phenyl}-6-[5-({[2-(methanesulphonyl)ethyl]amino}methyl)-2-furyl]-4-quinazolinamine di-L-lactate]
solubility ([1]; Solubility as free base): > 10300 µg/mL | solubility ([1]; Solubility as salt): > 13500 µg/mL

Compound: CS(=O)(=O)CCNCc1ccc(-c2ccc3ncnc(Nc4ccc(OCc5cccc(F)c5)c(Cl)c4)c3c2)o1.O=C(O)c1ccccc1.O=C(O)c1ccccc1 [Dibenzoate, N-{3-Chloro-4-[(3-fluorobenzyl)oxy]phenyl}-6-[5-({[2-(methanesulphonyl)ethyl]amino}methyl)-2-furyl]-4-quinazolinamine dibenzoate]
solubility ([1]; Solubility as free base): 40 µg/mL | solubility ([1]; Solubility as salt): 60 µg/mL

Compound: CS(=O)(=O)CCNCc1ccc(-c2ccc3ncnc(Nc4ccc(OCc5cccc(F)c5)c(Cl)c4)c3c2)o1.O=S(=O)(O)c1ccccc1.O=S(=O)(O)c1ccccc1 [Dibesylate, N-{3-Chloro-4-[(3-fluorobenzyl)oxy]phenyl}-6-[5-({[2-(methanesulphonyl)ethyl]amino}methyl)-2-furyl]-4-quinazolinamine dibesylate]
Solubility as free base [1]: <LoD

Compound: CCS(=O)(=O)O.CCS(=O)(=O)O.CS(=O)(=O)CCNCc1ccc(-c2ccc3ncnc(Nc4ccc(OCc5cccc(F)c5)c(Cl)c4)c3c2)o1 [Diesylate, N-{3-Chloro-4-[(3-fluorobenzyl)oxy]phenyl}-6-[5-({[2-(methanesulphonyl)ethyl]amino}methyl)-2-furyl]-4-quinazolinamine diesylate]
solubility ([1]; Solubility as free base): ~19700 µg/mL | solubility ([1]; Solubility as salt): ~27200 µg/mL

Compound: CS(=O)(=O)CCNCc1ccc(-c2ccc3ncnc(Nc4ccc(OCc5cccc(F)c5)c(Cl)c4)c3c2)o1.O.O=C(O)/C=C\C(=O)O.O=C(O)/C=C\C(=O)O [Dimaleate monohydrate, N-{3-Chloro-4-[(3-fluorobenzyl)oxy]phenyl}-6-[5-({[2-(methanesulphonyl)ethyl]amino}methyl)-2-furyl]-4-quinazolinamine dimaleate monohydrate]
solubility ([1]; Solubility as free base): 40 µg/mL | solubility ([1]; Solubility as salt): 60 µg/mL

Compound: CS(=O)(=O)CCNCc1ccc(-c2ccc3ncnc(Nc4ccc(OCc5cccc(F)c5)c(Cl)c4)c3c2)o1.O=C(O)/C=C\C(=O)O.O=C(O)/C=C\C(=O)O [Dimaleate, N-{3-Chloro-4-[(3-fluorobenzyl)oxy]phenyl}-6-[5-({[2-(methanesulphonyl)ethyl]amino}methyl)-2-furyl]-4-quinazolinamine dimaleate]
Solubility as free base ([1]; dimaleate): 0.15 mg/mL and 0.14 mg/mL | Solubility as salt ([1]; dimaleate): 0.20 mg/mL and 0.19 mg/mL | solubility ([1]; Solubility as free base): 130 µg/mL | solubility ([1]; Solubility as salt): 180 µg/mL

Compound: CS(=O)(=O)CCNCc1ccc(-c2ccc3ncnc(Nc4ccc(OCc5cccc(F)c5)c(Cl)c4)c3c2)o1.CS(=O)(=O)O.CS(=O)(=O)O.O.O [Dimesylate dehydrate, N-{3-Chloro-4-[(3-fluorobenzyl)oxy]phenyl}-6-[5-({[2-(methanesulphonyl)ethyl]amino}methyl)-2-furyl]-4-quinazolinamine dimesylate dihydrate]
solubility ([1]; Solubility as free base): ~15300 µg/mL | solubility ([1]; Solubility as salt): ~21300 µg/mL

Compound: CS(=O)(=O)CCNCc1ccc(-c2ccc3ncnc(Nc4ccc(OCc5cccc(F)c5)c(Cl)c4)c3c2)o1.CS(=O)(=O)O.CS(=O)(=O)O.O [Dimesylate monohydrate, N-{3-Chloro-4-[(3-fluorobenzyl)oxy]phenyl}-6-[5-({[2-(methanesulphonyl)ethyl]amino}methyl)-2-furyl]-4-quinazolinamine dimesylate monohydrate]
Solubility as free base ([1]; dimesylate monohydrate): 1) ~4.70 mg/ml | Solubility as salt ([1]; dimesylate monohydrate): 1) 6.25 mg/ml | solubility ([1]; Solubility as free base): ~4360 µg/mL | solubility ([1]; Solubility as salt): 5800 µg/mL

Compound: CS(=O)(=O)CCNCc1ccc(-c2ccc3ncnc(Nc4ccc(OCc5cccc(F)c5)c(Cl)c4)c3c2)o1.CS(=O)(=O)O.CS(=O)(=O)O [Dimesylate, N-{3-Chloro-4-[(3-fluorobenzyl)oxy]phenyl}-6-[5-({[2-(methanesulphonyl)ethyl]amino}methyl)-2-furyl]-4-quinazolinamine dimesylate]
solubility ([1]; Solubility as free base): > 7350 µg/mL | solubility ([1]; Solubility as salt): > 10000 µg/mL

Compound: CS(=O)(=O)CCNCc1ccc(-c2ccc3ncnc(Nc4ccc(OCc5cccc(F)c5)c(Cl)c4)c3c2)o1 [GW572016X, N-{3-Chloro-4-[(3-fluorobenzyl)oxy]phenyl}-6-[5-({[2-(methanesulphonyl)ethyl]amino}methyl)-2-furyl]-4-quinazolinamine]
IC50 [2]: < 5 µM | IC50 (breast (BT474) cell line): < 5 µM | IC50 [3]: < 5 µM

Compound: CS(=O)(=O)CCNCc1ccc(-c2ccc3ncnc(Nc4ccc(OCc5cccc(F)c5)c(Cl)c4)c3c2)o1.O=C(O)C[C@H](O)C(=O)O [Mono L-malate, N-{3-Chloro-4-[(3-fluorobenzyl)oxy]phenyl}-6-[5-({[2-(methanesulphonyl)ethyl]amino}methyl)-2-furyl]-4-quinazolinamine mono-L-malate]
Solubility as salt ([1]; mono-L-malate): 0.07 mg/mL | solubility ([1]; Solubility as free base): 50 µg/mL | solubility ([1]; Solubility as salt): 60 µg/mL

Compound: CS(=O)(=O)CCNCc1ccc(-c2ccc3ncnc(Nc4ccc(OCc5cccc(F)c5)c(Cl)c4)c3c2)o1.C[C@H](O)C(=O)O [Mono-L-lactate, N-{3-Chloro-4-[(3-fluorobenzyl)oxy]phenyl}-6-[5-({[2-(methanesulphonyl)ethyl]amino}methyl)-2-furyl]-4-quinazolinamine mono-L-lactate]
Solubility as salt [1]: 2) 7.9 mg/ml | solubility ([1]; Solubility as free base): ~7300 µg/mL | solubility ([1]; Solubility as salt): 8500 µg/mL

Compound: CS(=O)(=O)CCNCc1ccc(-c2ccc3ncnc(Nc4ccc(OCc5cccc(F)c5)c(Cl)c4)c3c2)o1.O=C(O)CC(O)(CC(=O)O)C(=O)O [Monocitrate, N-{3-Chloro-4-[(3-fluorobenzyl)oxy]phenyl}-6-[5-({[2-(methanesulphonyl)ethyl]amino}methyl)-2-furyl]-4-quinazolinamine monocitrate]
solubility ([1]; Solubility as free base): 10 µg/mL | solubility ([1]; Solubility as salt): 10 µg/mL

Compound: CCS(=O)(=O)O.CS(=O)(=O)CCNCc1ccc(-c2ccc3ncnc(Nc4ccc(OCc5cccc(F)c5)c(Cl)c4)c3c2)o1 [Monoesylate, N-{3-Chloro-4-[(3-fluorobenzyl)oxy]phenyl}-6-[5-({[2-(methanesulphonyl)ethyl]amino}methyl)-2-furyl]-4-quinazolinamine monoesylate]
Solubility as free base [1]: 0.53 mg/mL | Solubility as salt [1]: 0.63 mg/mL | solubility ([1]; Solubility as free base): 520 µg/mL | solubility ([1]; Solubility as salt): 620 µg/mL

Compound: CS(=O)(=O)CCNCc1ccc(-c2ccc3ncnc(Nc4ccc(OCc5cccc(F)c5)c(Cl)c4)c3c2)o1.CS(=O)(=O)O [Monomesylate, N-{3-Chloro-4-[(3-fluorobenzyl)oxy]phenyl}-6-[5-({[2-(methanesulphonyl)ethyl]amino}methyl)-2-furyl]-4-quinazolinamine monomesylate]
solubility ([1]; Solubility as free base): 330 µg/mL | solubility ([1]; Solubility as salt): 390 µg/mL

Compound: CS(=O)(=O)CCNCc1ccc(-c2ccc3ncnc(Nc4ccc(OCc5cccc(F)c5)c(Cl)c4)c3c2)o1.O=C(O)CCC(=O)O [Succinate, N-{3-Chloro-4-[(3-fluorobenzyl)oxy]phenyl}-6-[5-({[2-(methanesulphonyl)ethyl]amino}methyl)-2-furyl]-4-quinazolinamine monosuccinate]
Solubility as free base [1]: <LoD | Solubility as salt [1]: <LoD

pH of the remaining solution [1]: 3.2 | Solubility as free base [1]: 0.91 mg/mL | Solubility as salt [1]: 1.33 mg/mL
Compound: Lapatinib Di-L-Malate

pH of the remaining solution [1]: 3.0 | Solubility as free base [1]: <LoD
Compound: Lapatinib Difumarate

pH of the remaining solution [1]: 4.0 | Solubility as free base [1]: <LoD
Compound: Lapatinib Monofumarate
